Laboratory results as given in PMC7399337, “Biological Properties and Absolute Configuration of Flavanones From Calceolaria thyrsiflora Graham” (Frontiers in Pharmacology, 2020).
Values after ≈ are worked out from the molar mass of the structure shown.

Tests used:
S. aureus MRSA 622-4 = assay: Antibacterial MIC, CLSI microdilution, human pathogens; assay type: cell-based; details: Staphylococcus aureus, 18 h, read-out: Minimum inhibitory concentration (MIC)
Method: (§1) Briefly, stock solutions (5 mg/ml) of compounds in DMSO were diluted in Mueller-Hinton broth (MHB) to the different two-fold assay concentrations. […] The obtained solution was added to MHB and serially two-fold diluted in a 96-well microplate. A sample of 100 μL of inoculum 1.5 × 10^6 colony forming unit (CFU) ml^-1 in MHB was added and then incubated at 37°C for 18 h. The assay was repeated three times. Wells containing MHB, 100 μL of inoculum, and DMSO served as negative controls.

E. coli ATCC25922 = assay: as above; assay type: cell-based; details: Escherichia coli, 18 h, read-out: Minimum inhibitory concentration (MIC)
Method: as §1

S. aureus NTCC8325-4 = assay: as above; assay type: cell-based; details: Staphylococcus aureus, NTCC83254, 18 h, read-out: Minimum inhibitory concentration (MIC)
Method: as §1

S. aureus MRSA 97-7 = assay: as above; assay type: cell-based; details: Staphylococcus aureus, 18 h, read-out: Minimum inhibitory concentration (MIC)
Method: as §1

E. coli 33.1 = assay: as above; assay type: cell-based; details: Escherichia coli; E. coli 33.1 (multi-resistant); 18 h; read-out: Minimum inhibitory concentration (MIC)
Method: as §1

[1] = system: B16-F10 mouse metastatic melanoma cells; assay: In vitro cytotoxic activity, CyQuant cell viability, 72 h; assay type: cell-based; details: for CC50: Mus musculus, B16-F10, 72 h, read-out: LC50 ± SD
Method: Cell viability was measured using a CyQuant® Direct Cell Proliferation Assay Kit (Life Technologies, Grand Island, NY, USA) following the manufacturer’s instruction. Briefly, 5,000 cells per well were seeded onto a flat-bottom 96-well plate in 200 μL final volume. Six hours after seeding, the culture medium was replaced by the medium containing the tested compounds at 0.01 to 100 µM concentrations in DMSO (0.1% final concentration) during 72 h. Untreated cells (medium containing only 0.1% DMSO) were used as controls. At the end of the incubation, 100 μL of culture medium was removed from each well and replaced by detection reagent solution provided by the kit (which is a 1:5 mixture of the reagent CyQUANT®, direct nucleic acid stain and the reagent labeled as CyQUANT® direct background suppressor I). […] At least four independent experiments were performed for each concentration.

15-sLOX = molecular target: T1, 15-sLOX (Glycine max, UniProt P08170); assay: In vitro 15-sLOX enzyme assay (absorbance at 234 nm); assay type: biochemical; details: Flavanones at 10 µM (table footnote); method: 5 µg/ml
T1 construct: purchased Cayman Chemical Item No. 60712
T1 sequence (P08170 1-839): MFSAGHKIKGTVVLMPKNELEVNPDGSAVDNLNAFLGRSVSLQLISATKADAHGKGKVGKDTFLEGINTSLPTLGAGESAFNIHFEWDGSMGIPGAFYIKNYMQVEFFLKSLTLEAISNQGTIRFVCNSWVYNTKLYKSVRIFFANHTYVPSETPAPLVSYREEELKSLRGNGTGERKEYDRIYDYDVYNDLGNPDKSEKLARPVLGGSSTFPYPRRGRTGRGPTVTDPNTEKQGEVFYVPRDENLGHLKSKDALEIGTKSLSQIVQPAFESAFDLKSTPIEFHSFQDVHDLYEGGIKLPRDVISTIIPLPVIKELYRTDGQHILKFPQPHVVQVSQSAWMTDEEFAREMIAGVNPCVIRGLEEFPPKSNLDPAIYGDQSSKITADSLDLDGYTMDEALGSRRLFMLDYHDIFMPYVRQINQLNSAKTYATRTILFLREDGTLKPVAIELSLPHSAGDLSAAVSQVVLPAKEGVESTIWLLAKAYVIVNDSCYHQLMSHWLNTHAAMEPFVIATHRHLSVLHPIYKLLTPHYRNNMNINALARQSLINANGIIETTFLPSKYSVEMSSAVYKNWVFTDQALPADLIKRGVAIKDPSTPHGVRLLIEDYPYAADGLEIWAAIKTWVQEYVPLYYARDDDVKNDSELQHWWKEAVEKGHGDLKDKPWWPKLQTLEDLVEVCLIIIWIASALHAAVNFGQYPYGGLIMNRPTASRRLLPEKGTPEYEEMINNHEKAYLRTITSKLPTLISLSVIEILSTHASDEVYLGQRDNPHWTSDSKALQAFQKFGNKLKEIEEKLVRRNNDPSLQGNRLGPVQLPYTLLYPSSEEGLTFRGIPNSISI
Method: The activity of 15-sLOX (Cayman Chemical Item No. 60712) was determined following the formation of reaction products at 234 nm (ϵ = 25,000 M^-1 cm^-1) in a Perkin-Elmer Lambda 25 UV/Vis spectrophotometer. All reactions were performed at a final volume of 2 ml and were constantly stirred using a magnetic bar at room temperature. The reaction medium used contained 25 mM HEPES buffer (pH 7.4), Triton X-100 0.01%, and the arachidonic acid (AA) substrate at a 10 µM concentration determine preliminary percent inhibition (%I). AA concentration was determined quantitatively by allowing the enzymatic reaction to go to completion. The reaction was carried out by adding the inhibitor dissolved in DMSO (5 µg/ml in the reaction medium) to the bucket with the substrate buffer, and finally the enzyme was added. Assays were performed in duplicate on three different days. GraphPad Prism Demo V.7 performed the graphics for IC50 and kinetics studies ([GraphPad-Software-Inc., 2017]).

Compound	MIC (S. aureus MRSA 622-4)	MIC (E. coli ATCC25922)	MIC (S. aureus NTCC8325-4)	MIC (S. aureus MRSA 97-7)	MIC (E. coli 33.1)	fold less cytotoxic activity against B16-F10 than etoposide ([1]; B16-F10)	fold less cytotoxic activity against B16-F10 than taxol ([1]; B16-F10)	selectivity towards B16-F10 as compared to non-cancerous cells (MEF) ([1]; LC50 MEF versus B16-F10)	CC50 [1]	inhibition at 10 µM (15-sLOX)	LC50 ± SD ([1]; B16-F10, 72 h)
COc1cc(O)c2c(c1)O[C@H](c1ccc(O)c(O)c1)CC2=O [Compound 2, (-)-(2S)-5,3’,4’-trihydroxy-7-methoxyflavanone]	> 100 mg/L	> 100 mg/L	> 100 mg/L	50 mg/L (≈ 165 µM)	> 100 mg/L	4.6 fold	17 fold	4 fold	8.07 ± 1.61 µM	26 ± 3.96%	–
COc1cc(O)c2c(c1)O[C@H](c1ccc(O)cc1)CC2=O [Compound 1, (-)-(2S)-5,4’-dihydroxy-7-methoxyflavanone]	> 100 mg/L	> 100 mg/L	> 100 mg/L	> 100 mg/L	> 100 mg/L	–	–	–	72 ± 7.16 µM	7 ± 3.12%	no significant cytotoxic activity
